The first assay addresses T1, Substance-P receptor (Homo sapiens, UniProt P25103). In words: Displacement of [125I]-substance P from human Tachykinin receptor 1.
Conditions: not given
(In general: In a radioligand displacement assay an active substance lowers the binding of a labelled ligand.)
T1 sequence (P25103 whole entry): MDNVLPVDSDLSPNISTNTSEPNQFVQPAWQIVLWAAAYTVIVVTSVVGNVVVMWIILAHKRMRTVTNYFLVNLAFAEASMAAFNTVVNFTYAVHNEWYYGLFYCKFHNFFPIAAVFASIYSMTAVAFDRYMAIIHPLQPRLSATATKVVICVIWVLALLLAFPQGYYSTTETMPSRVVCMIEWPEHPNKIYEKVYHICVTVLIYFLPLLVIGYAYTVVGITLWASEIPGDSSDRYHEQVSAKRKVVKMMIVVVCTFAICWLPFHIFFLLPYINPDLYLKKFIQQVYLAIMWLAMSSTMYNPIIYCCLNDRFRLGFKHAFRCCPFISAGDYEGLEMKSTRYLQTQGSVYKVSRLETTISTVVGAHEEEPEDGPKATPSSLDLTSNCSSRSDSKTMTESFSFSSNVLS
One may read the IC50 as the midpoint of a concentration-inhibition curve. A lower IC50 goes with greater potency. For `Fc1ccc([C@@H]2NCCO[C@]23CC[C@H](c2ccccc2C(F)(F)F)CO3)cc1`, the IC50 was 400 nM.
In turn, `Fc1ccc([C@@H]2NCCO[C@@]23CC[C@@H](c2ccccc2C(F)(F)F)CO3)cc1` came in with a half-maximal inhibitory concentration (IC50) of 28 nM.

In the next assay the target is T1, Substance-P receptor. In words: Displacement of [125I]-labeled substance P from human Tachykinin receptor 1 expressed in CHO cells. Format: cell-based.
Conditions: not given
The molecule `O=c1[nH]nc(CN2CCOC3(CCC(c4ccccc4)CO3)C2c2ccccc2)[nH]1` (stereo not drawn) yielded an IC50 of 19 nM.
The same measure, in the same setting: under `COc1ccccc1[C@H]1COCC2(C1)OCCN[C@H]2c1ccc(F)cc1` (stereo partly drawn) stands 13 nM; under `Fc1ccc(C2NCCOC23CCC(c2cccc(C(F)(F)F)c2)CO3)cc1` (stereo not drawn), 513 nM; under `Fc1ccc([C@@H]2NCCOC23COC[C@H](c2ccccc2C(F)(F)F)C3)cc1` (stereo partly drawn), 24 nM.
With `c1ccc(C2CCC3(OCCNC3c3ccccc3)OC2)cc1` (stereo not drawn), the half-maximal inhibitory concentration (IC50) came out at 170 nM.
In turn, `Fc1ccc([C@@H]2NCCOC23COC[C@H](c2ccccc2)C3)cc1` (stereo partly drawn) yielded a concentration for half-maximal inhibition (IC50) of 99 nM.
The molecule `COc1ccc(OC)c([C@H]2COCC3(C2)OCCN[C@H]3c2ccc(F)cc2)c1` (stereo partly drawn) displayed an IC50 of 16 nM. Compared with the last molecule, the IC50 is about 6.2-fold lower.
For `Fc1ccc([C@@H]2NCCOC23COC[C@H](c2cccc(C(F)(F)F)c2)C3)cc1` (stereo partly drawn), the half-maximal inhibitory concentration (IC50) came out at 30 nM. Compared with the last molecule, the IC50 is about 1.9-fold higher.
Turning to `COc1ccc(F)cc1[C@H]1COCC2(C1)OCCN[C@H]2c1ccc(F)cc1` (stereo partly drawn), the half-inhibitory concentration (IC50) was 10 nM. Against the preceding molecule, the IC50 is about 3-fold lower.
As for `COc1ccccc1[C@H]1COCC2(C1)OCCN(Cc1n[nH]c(O)n1)[C@H]2c1ccc(F)cc1` (stereo partly drawn), the IC50 worked out at 0.56 nM.
Same read-out and setting: under `COc1ccc(-n2nnnc2C(F)(F)F)cc1[C@H]1COCC2(C1)OCCN(Cc1n[nH]c(O)n1)[C@H]2c1ccc(F)cc1` (stereo partly drawn) stands 0.1 nM.
The same measure, in the same setting: with `CN(C)Cc1nn[nH]c1CN1CCOC2(CCC(c3ccccc3OC(F)(F)F)CO2)C1c1ccc(F)cc1` (stereo not drawn) the figure was 1.4 nM; with `CN(C)Cc1nn[nH]c1CN1CCOC2(CCC(c3ccccc3C(F)(F)F)CO2)C1c1ccc(F)cc1` (stereo not drawn), 1.1 nM; with `COc1ccc(C(C)C)cc1[C@H]1COCC2(C1)OCCN[C@H]2c1ccc(F)cc1` (stereo partly drawn), 2.8 nM.
In turn, `COc1cccc([C@H]2COCC3(C2)OCCN[C@H]3c2ccc(F)cc2)c1` (stereo partly drawn) returned a 50% inhibitory concentration (IC50) of 183 nM.

Another assay concerns Gerbillinae. The assay can be described thus: CNS penetration was assessed by compounds ability in gerbils to block the foot-tapping induced by central infusion of the NK1-selective agonist GR-73632 when administered intravenously. The assay is classed as functional. To be noted: iv, read-out: ID50 (the source's name).
`CN(C)Cc1nn[nH]c1CN1CCOC2(CCC(c3ccccc3OC(F)(F)F)CO2)C1c1ccc(F)cc1` (stereo not drawn): the ED50 amounted to 0.6 mg/kg.
As for `CN(C)Cc1nn[nH]c1CN1CCOC2(CCC(c3ccccc3C(F)(F)F)CO2)C1c1ccc(F)cc1` (stereo not drawn), the ED50 came out at 1.1 mg/kg.

A further assay deals with T1, Substance-P receptor. The assay can be described thus: Percent displacement of [125I]-labeled substance P from the cloned human Tachykinin receptor 1 expressed in CHO cells at 1 uM. The assay is classed as cell-based.
Conditions: not given
Regarding `Fc1ccc([C@@H]2NCCO[C@@]23CC[C@H](c2ccccc2C(F)(F)F)CO3)cc1`, the Affinity is 44%.
`Fc1ccc([C@@H]2NCCO[C@]23CC[C@@H](c2ccccc2C(F)(F)F)CO3)cc1` had an Affinity of 47%.

The next assay addresses T1, Substance-P receptor. In words: Percent displacement of [125I]-labeled substance P from the cloned human Tachykinin receptor 1 expressed in CHO cells at a concentration of 1 uM of the compound. Format: cell-based.
Conditions: not given
`Fc1ccc(C2NCCOC23CCC(c2ccc(C(F)(F)F)cc2)CO3)cc1` (stereo not drawn) came in with an Affinity of 55%.
Same read-out and setting: with `COc1ccc([C@H]2COCC3(C2)OCCN[C@H]3c2ccc(F)cc2)cc1` (stereo partly drawn) the figure was 27%.

The values above are taken from ChEMBL document CHEMBL1135315, “Spirocyclic NK(1) antagonists I: [4.5] and [5.5]-spiroketals” (Bioorg Med Chem Lett, 2002).
